From article PMC5432998, “Recombinant expression of thermostable processive MtEG5 endoglucanase and its synergism with MtLPMO from Myceliophthora thermophila during the hydrolysis of lignocellulosic substrates” (Biotechnology for Biofuels, 2017)

Target: T1, MtEG5A (Thermothelomyces thermophilus, UniProt G2Q5D8)
T1 construct: gene MYCTH_86753; mature GH5 with CBM1; ORF 389 aa, signal peptide removed (printed MKSSILASVFATGAVA); C-terminal myc/His tag; Pichia pastoris X33
T1 sequence (G2Q5D8 17-389): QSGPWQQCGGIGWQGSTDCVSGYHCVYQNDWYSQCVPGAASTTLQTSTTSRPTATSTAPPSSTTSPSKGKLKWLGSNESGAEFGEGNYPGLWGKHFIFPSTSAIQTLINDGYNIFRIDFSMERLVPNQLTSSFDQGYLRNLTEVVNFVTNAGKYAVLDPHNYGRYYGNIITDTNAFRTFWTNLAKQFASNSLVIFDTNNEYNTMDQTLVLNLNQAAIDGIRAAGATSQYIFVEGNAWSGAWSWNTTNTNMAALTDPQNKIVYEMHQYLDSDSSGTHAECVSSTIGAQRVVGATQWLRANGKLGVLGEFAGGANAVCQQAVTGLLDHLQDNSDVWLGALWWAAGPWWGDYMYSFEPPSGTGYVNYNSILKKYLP
Test: HPAEC-PAD hydrolysis time course
Assay type: biochemical
Conditions: 40 uM substrate; citrate-phosphate pH 5.0; 50 °C

Row | SMILES | HPAEC-PAD hydrolysis time course
1 | OC[C@H]1O[C@@H](O[C@H]2[C@H](O)[C@@H](O)[C@H](O[C@H]3[C@H](O)[C@@H](O)[C@H](O[C@H]4[C@H](O)[C@@H](O)[C@H](O[C@H]5[C@H](O)[C@@H](O)[C@H](O[C@H]6[C@H](O)[C@@H](O)C(O)O[C@@H]6CO)O[C@@H]5CO)O[C@@H]4CO)O[C@@H]3CO)O[C@@H]2CO)[C@H](O)[C@@H](O)[C@@H]1O (some centres unmarked) [G6, cellohexaose] | The comparison of catalytic efficiency (k cat /K m) values of MtEG5A against the oligosaccharides
2 | OC[C@H]1O[C@@H](O[C@H]2[C@H](O)[C@@H](O)[C@H](O[C@H]3[C@H](O)[C@@H](O)[C@H](O[C@H]4[C@H](O)[C@@H](O)[C@H](O[C@H]5[C@H](O)[C@@H](O)C(O)O[C@@H]5CO)O[C@@H]4CO)O[C@@H]3CO)O[C@@H]2CO)[C@H](O)[C@@H](O)[C@@H]1O (some centres unmarked) [G5, cellopentaose] | the enzyme catalyzed the hydrolysis of G5, the products were G2 and G3
